Results reported in PubChem BioAssay AID1963832 (Molecular Pharmacology Branch, DTP, NCI, 2024).
pIC50: −log10 of the molar value.

Tested on: 885724-159-R-J1-PDC complex spheroid viability
Assay: Anticancer human tumor 885724-159-R-J1-PDC patient-derived pancreatic adenocarcinoma cell line growth inhibition [POLQ]
Details: for pIC50: curve of first compound; for viability, T/C: stronger effect = lower value
Method in brief: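 Complex spheroid viability model combining PDC tumour cells with endothelial (HUVEC) and MSC stromal cells. Novobiocin, ART-558 or RP6685 were tested singly and in combination with standard and investigational anticancer drugs. Each was titrated in half-log steps from near clinical Cmax, or from 10 microM where Cmax was unknown.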

[1] = second compound 0.0316 µM, first compound 0.0316 µM
[2] = second compound 0.0316 µM, first compound 0.1 µM
[3] = second compound 0.0316 µM, first compound 0.316 µM
[4] = second compound 0.0316 µM, first compound 1 µM
[5] = second compound 0.1 µM, first compound 0.0316 µM
[6] = second compound 0.1 µM, first compound 0.1 µM
[7] = second compound 0.1 µM, first compound 0.316 µM
[8] = second compound 0.1 µM, first compound 1 µM
[9] = second compound 0.316 µM, first compound 0.0316 µM
[10] = second compound 0.316 µM, first compound 0.1 µM
[11] = second compound 0.316 µM, first compound 0.316 µM
[12] = second compound 0.316 µM, first compound 1 µM
[13] = second compound 1 µM, first compound 0.0316 µM
[14] = second compound 1 µM, first compound 0.1 µM
[15] = second compound 1 µM, first compound 0.316 µM
[16] = second compound 1 µM, first compound 1 µM
[17] = second compound 3.16 µM, first compound 0.0316 µM
[18] = second compound 3.16 µM, first compound 0.1 µM
[19] = second compound 3.16 µM, first compound 0.316 µM
[20] = second compound 3.16 µM, first compound 1 µM
[21] = second compound 10 µM, first compound 0.0316 µM
[22] = second compound 10 µM, first compound 0.1 µM
[23] = second compound 10 µM, first compound 0.316 µM
[24] = second compound 10 µM, first compound 1 µM
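Note: spheroids exposed to compounds for 7 days.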

Q: How did the pIC50 (second compound 0.0316 µM) turn out when `COc1cccc(OCCCN)c1-c1cc(Nc2cnc(C#N)cn2)n[nH]1` + Nc1ccc(C#CCN(C(=O)Cc2ncc(C(F)(F)F)cc2C(F)(F)F)c2ccc(F)cc2)nn1 was run?
A: 7.82

Q: What about the pIC50 (second compound 0.1 µM) of the same compound?
A: 7.86

Q: And the pIC50 (second compound 0.316 µM)?
A: 7.85

Q: And the pIC50 (second compound 1 µM)?
A: 7.81

Q: And the pIC50 (second compound 3.16 µM)?
A: 7.74

Q: What about the pIC50 (second compound 10 µM) of the same compound?
A: < 6.00

Q: What about the viability, T/C (second compound 0.0316 µM, first compound 0.00316 µM) of the same compound?
A: 79%

Q: What about the viability, T/C (second compound 0.0316 µM, first compound 0.01 µM) of the same compound?
A: 52%

Q: What about the viability, T/C [1] of the same compound?
A: 46.1%

Q: What about the viability, T/C [2] of the same compound?
A: 46%

Q: And the viability, T/C [3]?
A: 45.7%

Q: What about the viability, T/C [4] of the same compound?
A: 47.7%

Q: What about the viability, T/C (second compound 0.1 µM, first compound 0.00316 µM) of the same compound?
A: 74%

Q: And the viability, T/C (second compound 0.1 µM, first compound 0.01 µM)?
A: 53%

Q: And the viability, T/C [5]?
A: 43.2%

Q: And the viability, T/C [6]?
A: 43.3%

Q: What about the viability, T/C [7] of the same compound?
A: 43.3%

Q: And the viability, T/C [8]?
A: 48.1%

Q: And the viability, T/C (second compound 0.316 µM, first compound 0.00316 µM)?
A: 77.3%

Q: And the viability, T/C (second compound 0.316 µM, first compound 0.01 µM)?
A: 51.5%

Q: And the viability, T/C [9]?
A: 47.3%

Q: What about the viability, T/C [10] of the same compound?
A: 42.9%

Q: And the viability, T/C [11]?
A: 43%

Q: And the viability, T/C [12]?
A: 48.6%

Q: What about the viability, T/C (second compound 1 µM, first compound 0.00316 µM) of the same compound?
A: 73.7%

Q: What about the viability, T/C (second compound 1 µM, first compound 0.01 µM) of the same compound?
A: 51.1%

Q: And the viability, T/C [13]?
A: 50.1%

Q: And the viability, T/C [14]?
A: 41.3%

Q: And the viability, T/C [15]?
A: 41%

Q: What about the viability, T/C [16] of the same compound?
A: 46.7%

Q: What about the viability, T/C (second compound 3.16 µM, first compound 0.00316 µM) of the same compound?
A: 68.4%

Q: And the viability, T/C (second compound 3.16 µM, first compound 0.01 µM)?
A: 52.3%

Q: What about the viability, T/C [17] of the same compound?
A: 46.6%

Q: What about the viability, T/C [18] of the same compound?
A: 44%

Q: And the viability, T/C [19]?
A: 53.6%

Q: What about the viability, T/C [20] of the same compound?
A: 48.1%

Q: What about the viability, T/C (second compound 10 µM, first compound 0.00316 µM) of the same compound?
A: 72.3%

Q: What about the viability, T/C (second compound 10 µM, first compound 0.01 µM) of the same compound?
A: 57.5%

Q: And the viability, T/C [21]?
A: 46.1%

Q: And the viability, T/C [22]?
A: 49.7%

Q: And the viability, T/C [23]?
A: 53.2%

Q: What about the viability, T/C [24] of the same compound?
A: 51.2%

Q: Which results are given for `CC1COCCN1c1cc(C2(S(C)(=N)=O)CC2)nc(-c2ccnc3[nH]ccc23)n1` (centres undefined) + COC1C(OC(N)=O)C(O)C(Oc2ccc3c(O)c(NC(=O)c4ccc(O)c(CC=C(C)C)c4)c(=O)oc3c2C)OC1(C)C?
A: pIC50 (second compound 0.0316 µM): 5.18; pIC50 (second compound 0.1 µM): 5.12; pIC50 (second compound 0.316 µM): 5.32; pIC50 (second compound 1 µM): 5.42; pIC50 (second compound 3.16 µM): 5.26; pIC50 (second compound 10 µM): 5.24; viability, T/C [1]: 95.9%; viability, T/C [2]: 96.8%; viability, T/C [3]: 93%; viability, T/C [4]: 67.8%; viability, T/C (second compound 0.0316 µM, first compound 3.16 µM): 60.3%; viability, T/C (second compound 0.0316 µM, first compound 10 µM): 44.6%; viability, T/C [5]: 102%; viability, T/C [6]: 89.7%; viability, T/C [7]: 95.4%; viability, T/C [8]: 73.6%; viability, T/C (second compound 0.1 µM, first compound 3.16 µM): 59.1%; viability, T/C (second compound 0.1 µM, first compound 10 µM): 47%; viability, T/C [9]: 87.5%; viability, T/C [10]: 98%; viability, T/C [11]: 95.9%; viability, T/C [12]: 68.7%; viability, T/C (second compound 0.316 µM, first compound 3.16 µM): 56.5%; viability, T/C (second compound 0.316 µM, first compound 10 µM): 43.9%; viability, T/C [13]: 101%; viability, T/C [14]: 102%; viability, T/C [15]: 89%; viability, T/C [16]: 72%; viability, T/C (second compound 1 µM, first compound 3.16 µM): 49.1%; viability, T/C (second compound 1 µM, first compound 10 µM): 45.5%; viability, T/C [17]: 102%; viability, T/C [18]: 85.6%; viability, T/C [19]: 91.3%; viability, T/C [20]: 72.6%; viability, T/C (second compound 3.16 µM, first compound 3.16 µM): 54.8%; viability, T/C (second compound 3.16 µM, first compound 10 µM): 43.9%; viability, T/C [21]: 111%; viability, T/C [22]: 92.2%; viability, T/C [23]: 94.1%; viability, T/C [24]: 72.7%; viability, T/C (second compound 10 µM, first compound 3.16 µM): 51.7%; viability, T/C (second compound 10 µM, first compound 10 µM): 47%
